Active and inactive are the calls of the source. The rule behind the calls is not given here.
Experiment: NF-kB promoter reporter activators, neuronal cells, dose response, cell-based, SH-SY5Y, luciferase (AID 1241)
Conditions: fold induction

SMILES	EC50
CCn1c(/C=C/c2ccccc2)nc2ccccc21	1580 nM
Cc1nc2c(ccc3nc(NC(=O)c4ccc5c(c4)OCCO5)sc32)s1	784 nM
c1ccc2oc(-c3csc(N4CCOCC4)n3)cc2c1	966 nM
Cc1ccccc1Nc1nc(N)c2ccccc2n1	1990 nM
O=C(Nc1ccc2c(c1)CCC2)c1ccccc1F	1800 nM
COc1cc(SC)ccc1C(=O)Nc1ccc(C)cc1	3050 nM
O=C(/C=C/c1ccccc1Cl)Nc1cccc(O)c1	1120 nM
Nc1nn(-c2ccccc2)c(N)c1N=Nc1ccc2c(c1)OCO2	1600 nM
Cc1ccc(Cc2cnc(NC(=O)c3cccs3)s2)cc1	4960 nM
O=C(/C=C/Nc1ccccc1C(F)(F)F)c1ccco1	1470 nM
O=C(Nc1ccc2sc3ccccc3c(=O)c2c1)c1ccccc1Cl	7040 nM
Cc1ccc(C(=O)/C=C/Nc2ccccc2C(N)=O)cc1	511 nM
COc1ccc(-c2csc(N3C(=O)CNC3=S)n2)cc1	935 nM
O=C(Nc1ccc2sccc2c1)c1ccc(Cl)s1	511 nM
CCOC(=O)N/C(N)=N/c1nc2ccccc2s1	9450 nM
c1ccc(-c2ccc(-c3nc(-c4ccncc4)no3)cc2)cc1	636 nM
O=C(Nc1ccc2c(c1)OCO2)c1ccc2c(c1)OCO2	1230 nM
Cc1nc(-c2ccc(NC(=O)c3ccccc3)cc2)cs1	761 nM
N/C(=N\OC(=O)c1ccc(Cl)cc1Cl)c1cccnc1	2100 nM
N#C/C(=N\Nc1ccccc1[N+](=O)[O-])C(=N)N1CCCCC1	6940 nM
CC(=O)Oc1ccc(Oc2ccc(-c3noc(C)n3)cc2)cc1	2840 nM
C/C(=N\NC(=O)c1ccc(Cl)cc1)c1cccs1	1400 nM
COc1ccc(CN=C2Nc3ccccc3CS2)cc1	13300 nM

SMILES	EC50
Cc1cccc(Nc2nc(-c3cccs3)cs2)n1	1220 nM
Cc1ccc(/C=C2\Sc3ccccc3C2=O)s1	5980 nM
Cc1ccc(C(=O)Nc2ccc3nccnc3c2)cc1	1110 nM
Cc1ccc2nc(NC(=S)NC(=O)c3cccs3)sc2c1	2230 nM
COc1cccc(-c2nc3ccccc3s2)c1	10900 nM
COc1ccc2c(c1)CC/C2=N\OC(=O)c1cccc(C)c1	2060 nM
CSc1ccc(/C=C/C(=O)Nc2ccccc2)cc1	242 nM
CCOc1ccc2nc(C(=O)N3CCCC(C)C3)sc2c1 (centres undefined)	3300 nM
Cc1nn(C)cc1/C=C/C(=O)c1ccccc1	2750 nM
O=C(NCCSc1ccccn1)c1ccc(Cl)cc1	2700 nM
Nc1cccn2c(-c3ccc(Cl)c(Cl)c3)cnc12	2680 nM
CCOc1ccc2cc(C#N)c(SCC(=O)OC)nc2c1	14500 nM
O=C(N=Nc1c(O)[nH]c2ccccc12)c1cccs1	1480 nM
CC(C)N=c1scc(-c2ccco2)n1/N=C/c1ccc(O)c(O)c1	6500 nM
Cc1ccc(-n2nnc(-c3cccnc3Cl)n2)cc1	4750 nM
c1ccc(COc2ccc(OCCCn3cncn3)cc2)cc1	19800 nM
Cc1ccc2nc(-c3sc4nc(C)ccc4c3N)[nH]c2c1	765 nM
Cc1cc(O)ccc1Nc1nc(-c2cccs2)cs1	1510 nM
C(=N\Nc1nc(-c2ccccc2)cs1)/c1ccco1	1700 nM
COc1c(C)cccc1C(=O)Nc1ccc(N2CCOCC2)c(Cl)c1	13400 nM
COc1ccc(Nc2nc(-c3cccs3)cs2)c(OC)c1	2330 nM
Clc1ccc2nc(N3CCCCC3)[nH]c2c1	7790 nM
Nc1cccc(-c2cn3cc(C(F)(F)F)cc(Cl)c3n2)c1	682 nM

SMILES	EC50
CN=c1scc(-c2ccccc2F)n1/N=C(\C)c1cccnc1	24400 nM
O=C(Nc1ccc2oc(-c3ccccc3F)nc2c1)c1ncn[nH]1	2110 nM
O=C(/C=C/Nc1cccc(O)c1)c1ccccc1	2100 nM
Nc1nc(-c2ccc(-c3ccccc3)cc2)cs1	2420 nM
Cc1ccc(/C=C/C(=O)N2CCc3ccccc32)o1	1330 nM
COc1ccc(NC(=O)c2csc3c2CCCC3)cc1	16700 nM
C/C(N)=C(/C#N)C(=O)CSc1nnc(-c2ccc3c(c2)OCO3)o1	< 59 nM
Fc1ccc(-c2nc3n(n2)Cc2ccccc2-3)cc1	125 nM
Cc1ccc2nc(NC(=O)c3ccc(Cl)s3)sc2c1	1060 nM
Cc1ccc(-c2nc3cc(N)ccc3o2)cc1	2170 nM
CC(=O)c1sc(N/N=C\c2ccccc2O)nc1C	5530 nM
CCOc1ccc2nc(NC(=O)Nc3cccs3)sc2c1	1680 nM
CC(C)(C)c1ccc2c(c1)C(=O)c1ccccc1C2=O	3190 nM
Cc1cc(NC(=O)Nc2ccccc2F)ccc1Br	4350 nM
COc1ccc(/C=C/c2nc(-c3ccccc3O)n[nH]2)cc1	2920 nM
O=C(Cc1nc(=O)c2ccccc2s1)Nc1ccccc1	220 nM
COc1cccc(-c2noc(-c3cccs3)n2)c1	2180 nM
Cc1ccccc1-c1cc(-c2ccccc2O)n[nH]1	18000 nM
COc1ccc(C(=O)/C=C/Nc2cccc(O)c2)cc1	986 nM
CCN(CC)c1ccc(NC(=O)c2ccc(Br)o2)cc1	23900 nM
CCNC(=O)O/N=C(\C)c1sc(-c2ccc(Cl)cc2)nc1C	1630 nM
Cc1ccsc1/C=N/Nc1cccc(C(=O)O)c1	1050 nM
O=C(c1cc(-c2cccc(O)c2)on1)N1CCCCC1	5510 nM

SMILES	EC50
O=C(CCS(=O)(=O)c1ccccc1)Nc1ccc(-c2nc3ccccc3s2)cc1	1140 nM
COc1ccc2nc(NC(=O)c3ccoc3C)sc2c1	3990 nM
O=C(Nc1nc(-c2ccc3c(c2)OCCO3)cs1)C1CCCC1	13700 nM
O=C(c1ccccc1)c1cnc(-c2ccc(Cl)cc2)s1	1250 nM
O=C(Oc1c(CN2CCOCC2)cc(Cl)c2cccnc12)c1ccc(F)cc1	13100 nM
CCOc1cc(/C=N/Nc2cccc(C(=O)O)c2)ccc1OC(=O)c1ccccc1	4000 nM
Nc1nn(-c2ccccc2)c(N)c1N=Nc1ccccc1F	1010 nM
O=C1/C(=C\c2ccco2)CCC/C1=C\c1ccco1	5000 nM
CCOC(=O)c1cnc(SCc2ccccc2)nc1N	8920 nM
O=C(Nc1ccc(Cl)cc1Cl)C1=Cc2ccccc2OC1	8040 nM
Cc1ccc(C(=O)c2sc3nsc(C)c3c2N)cc1	2000 nM
Cc1nnc(SCC(=O)Nc2ccc(-c3nc4ccccc4s3)cc2)s1	328 nM
O=C(Nc1ccc2c(c1)CCC2)c1cccs1	6510 nM
c1ccc(OCCSc2nnnn2-c2ccccc2)cc1	8350 nM
Clc1ccc(-c2nnc(SCc3ccon3)o2)c(Cl)c1	1060 nM
COc1ccc(-c2nc3ccc([N+](=O)[O-])cc3[nH]2)cc1	1660 nM
Fc1cccc(C2NN=C(c3ccccc3)S2)c1 (centres undefined)	9650 nM
Cc1nn(-c2nc3ccccc3s2)c(N)c1-c1ccccc1	9750 nM
CC(C)c1ccc(/C=C/c2ccc(=O)n(C)n2)cc1	8700 nM
CCOC(=O)CSc1nc2cc(OC)ccc2cc1C#N	144 nM
O=C(O)c1cc(N/N=C/c2ccc3c(c2)OCCO3)ccc1Cl	26500 nM
Clc1ccc(OCc2nc(-c3ccncc3)no2)c(Cl)c1	1120 nM
COc1ccccc1-c1nc(-c2ccc(Br)o2)no1	1040 nM

SMILES	EC50
COc1cc(/C=N/Nc2nc3ccccc3s2)ccc1OC(=O)c1ccccc1F	1420 nM
Cc1ccc(Cc2cnc(NC(=O)c3ccco3)s2)cc1	1340 nM
Cc1ccsc1C(=O)OCc1csc(-c2ccccc2)n1	1540 nM
COc1cc(SC)ccc1C(=O)NCCOc1ccccc1Cl	15500 nM
NC(=O)c1ccccc1N/C=C/C(=O)c1cccs1	4950 nM
CCCCOC(=O)Nc1nc2ccccc2s1	3470 nM
CC(C)c1cc(C(=O)Nc2ccc3c(c2)OCO3)no1	3280 nM
O=C1/C(=C/c2cccs2)CCc2ccccc21	4120 nM
CCOc1ccc2nc(N3CCCCCC3)sc2c1	3690 nM
O=C(Nc1ccc(N2CCCCC2)cc1)c1ccccc1	978 nM
Fc1cccc(F)c1CSc1nc2ccccc2[nH]1	4340 nM
Cc1sc(NC(=O)c2ccco2)nc1-c1ccccc1	2770 nM
CC(=O)Nc1cccc(-c2csc(Nc3ccc(Cl)cn3)n2)c1	2200 nM
O=C(Nc1ccc2c(c1)OCCO2)c1cc2ccccc2o1	1120 nM
COC(=O)CSc1nc2cc3c(cc2cc1C#N)OCO3	997 nM
O=C(N/N=C/C(Br)=C\c1ccccc1)c1n[nH]c2c1CCC2	1090 nM
O=C(Nc1ccc2c(c1)CCC2)c1ccc(Br)s1	772 nM
Cc1ccc2nc(-c3ccc(NC(=O)COC(=O)c4ccc(Br)o4)cc3)sc2c1	485 nM
CCN(CC)c1ccc(/C=N/NC(=S)NC)c(O)c1	1980 nM
N#C/C(=N/Nc1ccc([N+](=O)[O-])cc1)C(=N)N1CCCCC1	2610 nM
N#C/C(=N\Nc1ccc(F)cc1)C(=N)N1CCCCC1	2970 nM
Cc1ccc(NC(=O)c2ccccn2)c(Br)c1	18900 nM
Cc1occc1C(=O)Nc1cccc2ccccc12	4620 nM

SMILES	EC50
CC1CCN(C(=O)c2cc(-c3ccccc3O)on2)CC1	8790 nM
N/C(=N\OC(=O)COc1ccc(Cl)cc1Cl)c1ccccn1	1190 nM
O=C(c1cnn(-c2ccccc2)c1)c1ccccc1O	1700 nM
O=c1[nH]c(/C=C2\C=Nc3ccccc32)c(O)n1Cc1ccccc1F	2540 nM
Cc1ccc(C(=O)Nc2ccc3c(c2)CCC3)o1	31000 nM (inactive)
COc1ccc(Cn2c(/C=C/c3ccccc3)nc3ccccc32)cc1	4870 nM
Cc1ccc(/C=N/Nc2cccc3cccnc23)c(O)c1	9470 nM
CC(=O)c1c(C)[nH]c(C(=O)Nc2ccc3c(c2)OCCO3)c1C	5260 nM
N/C(=N\N=C\c1ccc2c(c1)OCO2)c1nonc1N	277 nM
c1ccc(N2CCN(c3cnc4ccccc4n3)CC2)cc1	1610 nM
COc1ccc(C2CC(c3c(O)cc(C)oc3=O)=NCCS2)c(OC)c1 (centres undefined)	2330 nM
C=CCNc1nc(-c2cc3ccccc3o2)cs1	598 nM
N/C(=N\OC(=O)COc1ccc(Br)cc1Cl)c1ccccn1	1060 nM
CN(C)C(=O)Oc1ccc(-c2cn3cc(Cl)ccc3n2)cc1	3220 nM
C/C(=N\Nc1cccc2cccnc12)c1ccccc1O	1010 nM
Cc1cc(C)c[n+](-c2nc3ccccc3nc2C(=C=[N-])C#N)c1	28000 nM
CCN(CC)c1ccc(/C=N/NC(=O)c2ccco2)cc1	4280 nM
CN1/C(=C/C(=O)c2cccs2)Sc2ccccc21	685 nM
c1ccc(-c2cnc(-c3ccccc3)nc2)cc1	868 nM
